# From ChEMBL document CHEMBL5523677, “Discovery of ASP6918, a KRAS G12C inhibitor: Synthesis and structure-activity relationships of 1-{2,7-diazaspiro[3.5]non-2-yl}prop-2-en-1-one derivatives as covalent inhibitors with good potency and oral activity for the treatment of solid tumors” (Bioorg Med Chem, 2024)
# Columns and labels:
# [1] = Inhibition of biotinylated GDP-bound Avi-tagged KRAS G12C mutant (1 to 185 residues)/SOS/GST-tagged c-Raf (unknown origin) complex formation incubated for 1 hr in presence of GTP by fluorescence based analysis; parameters: species or system Homo sapiens
# [2] = Inhibition of ERK phosphorylation in KRAS-G12C mutant positive human NCI-H1373 cells incubated for 2 hrs by ELISA; format: cell-based
# [3] = In vivo inhibition of ERK phosphorylation in male nude mouse xenografted with KRAS G12C mutant positive human NCI-H1373 cells assessed as reduction in pERK level in tumor at 3 mg/kg, sc administered as single dose and measured after 6 hrs relative to control; format: functional
# [4] = In vivo inhibition of ERK phosphorylation in male nude mouse xenografted with KRAS G12C mutant positive human NCI-H1373 cells assessed as reduction in pERK level in tumor at 40 mg/kg, po administered as single dose and measured after 6 hrs relative to control; format: functional
# [5] = Drug concentration in tumor of male nude mouse xenografted with KRAS G12C mutant positive human NCI-H1373 cells at 20 mg/kg, po administered as single dose and measured after 6 hrs; format: ADME, organism-based, Neoplasm; details: read-out: Ct
# NCI-H1373 [6] = assay: Antitumor activity against KRAS G12C mutant positive human NCI-H1373 cells xenografted in male nude mouse assessed as inhibition of tumor growth at 3 mg/kg, sc administered once daily for 13 days and measured on day 14 relative to control; format: functional; details: NCI-H1373, 336 h, time 14 day, read-out: TGI
# [7] = Drug concentration in tumor of male nude mouse xenografted with KRAS G12C mutant positive human NCI-H1373 cells at 40 mg/kg, po administered as single dose and measured after 6 hrs; format: ADME, organism-based, Neoplasm; details: read-out: Ct
# [8] = Drug concentration in plasma of male nude mouse xenografted with KRAS G12C mutant positive human NCI-H1373 cells at 60 mg/kg, po administered as single dose and measured after 6 hrs; format: ADME, organism-based
# NCI-H1373 [9] = assay: Antitumor activity against KRAS G12C-positive human NCI-H1373 cells xenografted in male nude mouse assessed as tumor regression at 60 mg/kg, po administered once daily for 13 days and measured on day 14 relative to control; format: functional; details: time 14 day
# [10] = Metabolic stability in human liver microsomes assessed as intrinsic clearance at 0.1 to 0.2 micromol/L incubated for 30 mins in presence of NADPH-generating system by LC-MS/MS analysis; format: ADME, Microsome; details: dose 0.1-0.2 µmol/L, read-out: CLH
# NCI-H1373 [11] = assay: Antitumor activity against KRAS G12C-positive human NCI-H1373 cells xenografted in male nude mouse assessed as inhibition of tumor growth at 20 mg/kg, po administered once daily for 13 days and measured on day 14 relative to control; format: functional; details: NCI-H1373, 336 h, time 14 day, read-out: TGI
# NCI-H1373 [12] = assay: Antitumor activity against KRAS G12C mutant positive human NCI-H1373 cells xenografted in male nude mouse assessed as inhibition of tumor growth at 10 mg/kg, sc administered once daily for 13 days and measured on day 14 relative to control; format: functional; details: NCI-H1373, 336 h, time 14 day, read-out: TGI
# [13] = Drug concentration in plasma of male nude mouse xenografted with KRAS G12C mutant positive human NCI-H1373 cells at 3 mg/kg, sc administered as single dose and measured after 6 hrs; format: ADME, organism-based
# [14] = Lipophilicity, LogD of compound in 1-Octanol/PBS at pH 7.4 by LC-MS analysis; format: physicochemical
# [15] = Aqueous solubility of compound in Japanese Pharmacopoeia 2nd fluid at pH 6.8 at 130 umol/L incubated for 20 hrs by liquid chromatography; format: physicochemical; details: dose 130 µmol/L
# [16] = Toxicity in male nude mouse xenografted with KRAS G12C-positive human NCI-H1373 cells assessed as reduction in body weight at 10 to 60 mg/kg, po administered once daily for 13 days; format: organism-based; details: in vivo, 312 h, dose 10-60 mg/kg, time 13 day
# NCI-H1373 [17] = assay: Antitumor activity against KRAS G12C mutant positive human NCI-H1373 cells xenografted in male nude mouse assessed as tumor regression at 10 mg/kg, sc administered once daily for 13 days and measured on day 14 relative to control; format: functional; details: time 14 day
# NCI-H1373 [18] = assay: Cytotoxicity against KRAS G12C mutant positive human NCI-H1373 cells assessed as inhibition of cell growth incubated for 6 days by Celltiter-Glo 2.0 assay; format: functional, cell-based
# [19] = Inhibition of ERK phosphorylation in human A-375 cells harboring wild type KRAS and mutant BRAF incubated for 2 hrs by ELISA; format: cell-based; details: A-375, 2 h
# NCI-H1373 [20] = assay: Antitumor activity against KRAS G12C-positive human NCI-H1373 cells xenografted in male nude mouse assessed as inhibition of tumor growth at 10 mg/kg, po administered once daily for 13 days and measured on day 14 relative to control; format: functional; details: NCI-H1373, 336 h, time 14 day, read-out: TGI
# [21] = In vivo inhibition of ERK phosphorylation in male nude mouse xenografted with KRAS G12C mutant positive human NCI-H1373 cells assessed as reduction in pERK level in tumor at 60 mg/kg, po administered as single dose and measured after 6 hrs relative to control; format: functional
# [22] = Drug concentration in plasma of male nude mouse xenografted with KRAS G12C mutant positive human NCI-H1373 cells at 20 mg/kg, po administered as single dose and measured after 6 hrs; format: ADME, organism-based
# NCI-H1373 [23] = assay: Antitumor activity against KRAS G12C-positive human NCI-H1373 cells xenografted in male nude mouse assessed as tumor regression at 40 mg/kg, po administered once daily for 13 days and measured on day 14 relative to control; format: functional; details: time 14 day
# NCI-H1373 [24] = assay: Antitumor activity against KRAS G12C-positive human NCI-H1373 cells xenografted in male nude mouse assessed as inhibition of tumor growth at 60 mg/kg, po administered once daily for 13 days and measured on day 14 relative to control; format: functional; details: NCI-H1373, 336 h, time 14 day, read-out: TGI
# [25] = Drug concentration in tumor of male nude mouse xenografted with KRAS G12C mutant positive human NCI-H1373 cells at 60 mg/kg, po administered as single dose and measured after 6 hrs; format: ADME, organism-based, Neoplasm; details: read-out: Ct
# NCI-H1373 [26] = assay: Antitumor activity against KRAS G12C-positive human NCI-H1373 cells xenografted in male nude mouse assessed as inhibition of tumor growth at 40 mg/kg, po administered once daily for 13 days and measured on day 14 relative to control; format: functional; details: NCI-H1373, 336 h, time 14 day, read-out: TGI
# [27] = In vivo inhibition of ERK phosphorylation in male nude mouse xenografted with KRAS G12C mutant positive human NCI-H1373 cells assessed as reduction in pERK level in tumor at 20 mg/kg, po administered as single dose and measured after 6 hrs relative to control; format: functional
# [28] = Drug concentration in tumor of male nude mouse xenografted with KRAS G12C mutant positive human NCI-H1373 cells at 3 mg/kg, sc administered as single dose and measured after 6 hrs; format: ADME, organism-based, Neoplasm; details: read-out: Ct
# [29] = Metabolic stability in mouse liver microsomes assessed as intrinsic clearance at 0.1 to 0.2 micromol/L incubated for 30 mins in presence of NADPH-generating system by LC-MS/MS analysis; format: ADME, Microsome; details: dose 0.1-0.2 µmol/L, read-out: CLH
# [30] = Drug concentration in plasma of male nude mouse xenografted with KRAS G12C mutant positive human NCI-H1373 cells at 40 mg/kg, po administered as single dose and measured after 6 hrs; format: ADME, organism-based
structure (smiles),measurement,setting,value
C=CC(=O)N1CC2(CCN(c3nc(OC4CCN(CC)CC4)nc4c(F)c(-c5c(C)ccc6[nH]ncc56)c(CC)cc34)CC2)C1,IC50,[1],59 nM
same,IC50,"[2]; Homo sapiens, NCI-H1373, 2 h",160 nM
C=CC(=O)N1CC2(CCN(c3nc(OC4CCN(C)CC4)nc4c(OCC)c(-c5c(C)ccc6[nH]ncc56)c(C=C)cc34)CC2)C1,inhibition in vivo at 3 mg/kg,[3],72%
same,inhibition in vivo at 40 mg/kg,[4],72%
same,concentration at 6 h,[5],7 nM
same,IC50,"[2]; Homo sapiens, NCI-H1373, 2 h",5 nM
same,IC50,[2]; nci-h1373,4 nM
same,inhibition in vivo at 3 mg/kg,NCI-H1373 [6],82%
same,concentration at 6 h,[7],50 nM
same,concentration at 6 h,[8],110 nM
same,Activity,NCI-H1373 [9],73%
same,CLint scaled,[10],130 mL/min/kg
same,inhibition in vivo at 20 mg/kg,NCI-H1373 [11],68%
same,inhibition in vivo at 10 mg/kg,NCI-H1373 [12],> 100%
same,concentration at 6 h,[13],280 nM
same,logD,[14],3.7
same,"solubility at 20 h, 130 µM",[15],> 100 µM
same,Activity,[16],Non-Toxic
same,Activity,NCI-H1373 [17],73%
same,IC50,"NCI-H1373 [18]; Homo sapiens, NCI-H1373, 144 h",8 nM
same,IC50,NCI-H1373 [18]; nci-h1373,6 nM
same,IC50,[19],> 10 µM
same,inhibition in vivo at 10 mg/kg,NCI-H1373 [20],27%
same,inhibition in vivo at 60 mg/kg,[21],80%
same,concentration at 6 h,[22],21 nM
same,Activity,NCI-H1373 [23],49%
same,inhibition in vivo at 60 mg/kg,NCI-H1373 [24],> 100%
same,concentration at 6 h,[25],81 nM
same,inhibition in vivo at 40 mg/kg,NCI-H1373 [26],> 100%
same,inhibition in vivo at 20 mg/kg,[27],38%
same,concentration at 6 h,[28],170 nM
same,CLint scaled,[29],119 mL/min/kg
same,concentration at 6 h,[30],120 nM
C=CC(=O)N1CC2(CCN(c3nc(OC4CCN(C)CC4)nc4c(Cl)c(-c5c(C)ccc6[nH]ncc56)c(F)cc34)CC2)C1,IC50,"[2]; Homo sapiens, NCI-H1373, 2 h",96 nM
same,logD,[14],3.3
same,"solubility at 20 h, 130 µM",[15],> 100 µM
same,IC50,"NCI-H1373 [18]; Homo sapiens, NCI-H1373, 144 h",100 nM
same,IC50,[19],> 10 µM
same,CLint scaled,[29],115 mL/min/kg
C=CC(=O)N1CC2(CCN(c3nc(OC4CCN(CC)CC4)nc4c(C#N)c(-c5c(C)ccc6[nH]ncc56)c(Cl)cc34)CC2)C1,IC50,[1],280 nM
C=CC(=O)N1CC2(CCN(c3nc(OC4CCN(CC)CC4)nc4c(OC5CCC5)c(-c5c(C)ccc6[nH]ncc56)c(Cl)cc34)CC2)C1,IC50,[1],57 nM
same,IC50,"[2]; Homo sapiens, NCI-H1373, 2 h",35 nM
C=CC(=O)N1CC2(CCN(c3nc(OC4CCN(CC)CC4)nc4c(OC5CC5)c(-c5c(C)ccc6[nH]ncc56)c(Cl)cc34)CC2)C1,IC50,[1],56 nM
same,IC50,"[2]; Homo sapiens, NCI-H1373, 2 h",35 nM
C=CC(=O)N1CC2(CCN(c3nc(OC4CCN(C)CC4)nc4c(OC5CCC5)c(-c5c(C)ccc6[nH]ncc56)c(C=C)cc34)CC2)C1,IC50,"[2]; Homo sapiens, NCI-H1373, 2 h",5 nM
same,logD,[14],> 4.3
same,"solubility at 20 h, 130 µM",[15],> 100 µM
same,IC50,"NCI-H1373 [18]; Homo sapiens, NCI-H1373, 144 h",12 nM
same,IC50,[19],> 10 µM
same,CLint scaled,[29],342 mL/min/kg
C=CC(=O)N1CC2(CCN(c3nc(OC4CCN(CC)CC4)nc4c(F)c(-c5c(C)ccc6[nH]ncc56)c(C=C)cc34)CC2)C1,IC50,[1],41 nM
same,IC50,"[2]; Homo sapiens, NCI-H1373, 2 h",37 nM
C=CC(=O)N1CC2(CCN(c3nc(OC4CCN(CC)CC4)nc4c(F)c(-c5c(C)ccc6[nH]ncc56)c(-c5ccccc5)cc34)CC2)C1,IC50,[1],> 1000 nM
C#Cc1cc2c(N3CCC4(CC3)CN(C(=O)C=C)C4)nc(OC3CCN(CC)CC3)nc2c(F)c1-c1c(C)ccc2[nH]ncc12,IC50,[1],56 nM
same,IC50,"[2]; Homo sapiens, NCI-H1373, 2 h",120 nM
C=CC(=O)N1CC2(CCN(c3nc(OC4CCN(CC)CC4)nc4c(OCC)c(-c5c(C)ccc6[nH]ncc56)c(Cl)cc34)CC2)C1,IC50,[1],50 nM
same,IC50,"[2]; Homo sapiens, NCI-H1373, 2 h",49 nM
C=CC(=O)N1CC2(CCN(c3nc(OC4CCN(CC)CC4)nc4c(F)c(-c5c(C)ccc6[nH]ncc56)c(C(=C)C)cc34)CC2)C1,IC50,[1],100 nM
same,IC50,"[2]; Homo sapiens, NCI-H1373, 2 h",140 nM
C=CC(=O)N1CC2(CCN(c3nc(OC4CCN(CC)CC4)nc4c(F)c(-c5c(C)ccc6[nH]ncc56)c(C5CC5)cc34)CC2)C1,IC50,[1],51 nM
same,IC50,"[2]; Homo sapiens, NCI-H1373, 2 h",31 nM
C=CC(=O)N1CC2(CCN(c3nc(OC4CCN(C)CC4)nc4c(OC)c(-c5c(C)ccc6[nH]ncc56)c(C=C)cc34)CC2)C1,IC50,"[2]; Homo sapiens, NCI-H1373, 2 h",39 nM
same,logD,[14],3.2
same,IC50,"NCI-H1373 [18]; Homo sapiens, NCI-H1373, 144 h",52 nM
same,IC50,[19],> 10 µM
C=CC(=O)N1CC2(CCN(c3nc(OC4CCN(CC)CC4)nc4cc(-c5c(C)ccc6[nH]ncc56)c(Cl)cc34)CC2)C1,IC50,[1],250 nM
C=CC(=O)N1CC2(CCN(c3nc(OC4CCN(CC)CC4)nc4c(OC)c(-c5c(C)ccc6[nH]ncc56)c(Cl)cc34)CC2)C1,IC50,[1],46 nM
same,IC50,"[2]; Homo sapiens, NCI-H1373, 2 h",75 nM
